Data as given in ChEMBL document CHEMBL1201862, “PubChem BioAssay data set” (2004).
Active and inactive are the calls of the source.

Legend:
Trypsin = Trypsin (Sus scrofa, UniProt P00761); assay: porcine trypsin inhibitors, dose response, selectivity assay for Rce1 protease inhibitor project, biochemical, quenched peptide fluorescence, cherry-pick (AID 488789)
CAAX prenyl protease 2 = CAAX prenyl protease 2 (Saccharomyces cerevisiae S288c, UniProt Q03530); format: biochemical
[1] = biological target: T1, Eukaryotic translation initiation factor 2-alpha kinase 3 (Homo sapiens, UniProt Q9NZJ5); assay: Counterscreen assay for PERK inhibitors: Dose response cell-based high throughput screening assay to measure inhibition of PERK at 6 hours. [Related pubchem assays: 1522, 1416 ]; format: functional
T1 sequence (Q9NZJ5 whole entry): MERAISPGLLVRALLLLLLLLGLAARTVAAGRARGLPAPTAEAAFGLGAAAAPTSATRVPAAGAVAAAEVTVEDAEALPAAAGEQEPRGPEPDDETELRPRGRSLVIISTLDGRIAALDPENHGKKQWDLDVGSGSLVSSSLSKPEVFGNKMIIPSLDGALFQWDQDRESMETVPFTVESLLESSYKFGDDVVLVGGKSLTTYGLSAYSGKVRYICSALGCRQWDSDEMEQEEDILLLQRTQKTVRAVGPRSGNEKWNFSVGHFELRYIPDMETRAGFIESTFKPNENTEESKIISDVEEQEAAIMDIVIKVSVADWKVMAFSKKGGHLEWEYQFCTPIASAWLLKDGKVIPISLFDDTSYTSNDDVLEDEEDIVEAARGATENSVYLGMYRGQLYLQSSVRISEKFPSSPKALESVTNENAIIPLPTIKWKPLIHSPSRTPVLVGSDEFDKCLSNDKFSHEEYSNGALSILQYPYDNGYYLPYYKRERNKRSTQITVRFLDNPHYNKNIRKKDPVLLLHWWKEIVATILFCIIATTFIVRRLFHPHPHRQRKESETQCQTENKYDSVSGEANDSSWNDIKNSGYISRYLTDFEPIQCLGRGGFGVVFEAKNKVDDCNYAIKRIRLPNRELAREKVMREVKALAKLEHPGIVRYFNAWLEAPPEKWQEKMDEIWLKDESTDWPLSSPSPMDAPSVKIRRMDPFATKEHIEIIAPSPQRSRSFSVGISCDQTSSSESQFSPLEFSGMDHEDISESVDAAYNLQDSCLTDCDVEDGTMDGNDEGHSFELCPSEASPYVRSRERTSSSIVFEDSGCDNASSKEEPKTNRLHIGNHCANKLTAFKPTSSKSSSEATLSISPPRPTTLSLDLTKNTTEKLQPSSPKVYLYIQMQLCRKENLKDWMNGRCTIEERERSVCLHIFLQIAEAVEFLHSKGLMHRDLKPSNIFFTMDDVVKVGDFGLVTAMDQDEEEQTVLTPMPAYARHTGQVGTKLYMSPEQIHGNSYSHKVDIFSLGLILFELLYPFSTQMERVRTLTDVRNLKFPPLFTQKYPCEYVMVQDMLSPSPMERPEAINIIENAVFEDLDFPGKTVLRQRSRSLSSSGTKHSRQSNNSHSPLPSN

[2] = biological target: T1, Eukaryotic translation initiation factor 2-alpha kinase 3; assay: Dose response cell-based high-throughput screening assay to measure PERK inhibition. [Related pubchem assays: 1416 ]; format: functional
[3] = biological target: Intestinal-type alkaline phosphatase (Homo sapiens, UniProt P09923); assay: Dose Response confirmation of uHTS hits from a small molecule inhibitors of human intestinal alkaline phosphatase via a luminescent assay. [Related pubchem assays (depositor defined):AID2544, AID2574]; format: functional
[4] = biological target: T2, Rac GTPase-activating protein 1 (Homo sapiens, UniProt Q9H0H5); assay: MgcRacGAP GTPase-activating activity inhibitors, confirmation, biochemical, ADP Hunter fluorescence, primary and confirmatory (AID 624330); format: functional
T2 sequence (Q9H0H5 whole entry): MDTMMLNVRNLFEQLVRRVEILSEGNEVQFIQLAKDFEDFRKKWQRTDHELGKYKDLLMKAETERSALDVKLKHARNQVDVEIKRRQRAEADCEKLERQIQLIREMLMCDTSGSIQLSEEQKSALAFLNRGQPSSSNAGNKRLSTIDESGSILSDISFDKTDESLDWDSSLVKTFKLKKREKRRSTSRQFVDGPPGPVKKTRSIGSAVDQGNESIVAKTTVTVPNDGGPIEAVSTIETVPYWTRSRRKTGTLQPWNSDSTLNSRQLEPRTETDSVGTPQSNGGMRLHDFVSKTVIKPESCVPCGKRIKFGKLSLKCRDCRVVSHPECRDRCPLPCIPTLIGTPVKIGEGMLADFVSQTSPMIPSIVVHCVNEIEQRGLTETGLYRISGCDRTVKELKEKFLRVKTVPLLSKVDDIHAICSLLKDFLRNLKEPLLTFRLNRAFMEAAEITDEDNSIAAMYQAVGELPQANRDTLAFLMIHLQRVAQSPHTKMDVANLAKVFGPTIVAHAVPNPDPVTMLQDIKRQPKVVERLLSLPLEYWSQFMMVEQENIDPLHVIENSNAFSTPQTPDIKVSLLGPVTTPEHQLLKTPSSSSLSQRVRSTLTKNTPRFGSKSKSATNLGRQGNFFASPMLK

[5] = biological target: Eukaryotic translation initiation factor 4E (Mus musculus, UniProt P63073); assay: eIF4E–eIF4G protein interaction inhibitors, dose response, biochemical, TR-FRET (AID 855); format: functional;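 also: potency for disrupting eIF4E binding to eIF4GI seen as loss of FRET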
[6] = biological target: Induced myeloid leukemia cell differentiation protein Mcl-1 (Homo sapiens, UniProt Q07820); format: functional
[7] = biological target: Glyceraldehyde-3-phosphate dehydrogenase (Homo sapiens, UniProt P04406)
[8] = biological target: T3, Alkaline phosphatase, tissue-nonspecific isozyme (Homo sapiens, UniProt P05186); assay: human TNAP enzyme inhibitors, SAR follow-up, biochemical, luminescent, dose response (AID 1056)
T3 sequence (P05186 whole entry): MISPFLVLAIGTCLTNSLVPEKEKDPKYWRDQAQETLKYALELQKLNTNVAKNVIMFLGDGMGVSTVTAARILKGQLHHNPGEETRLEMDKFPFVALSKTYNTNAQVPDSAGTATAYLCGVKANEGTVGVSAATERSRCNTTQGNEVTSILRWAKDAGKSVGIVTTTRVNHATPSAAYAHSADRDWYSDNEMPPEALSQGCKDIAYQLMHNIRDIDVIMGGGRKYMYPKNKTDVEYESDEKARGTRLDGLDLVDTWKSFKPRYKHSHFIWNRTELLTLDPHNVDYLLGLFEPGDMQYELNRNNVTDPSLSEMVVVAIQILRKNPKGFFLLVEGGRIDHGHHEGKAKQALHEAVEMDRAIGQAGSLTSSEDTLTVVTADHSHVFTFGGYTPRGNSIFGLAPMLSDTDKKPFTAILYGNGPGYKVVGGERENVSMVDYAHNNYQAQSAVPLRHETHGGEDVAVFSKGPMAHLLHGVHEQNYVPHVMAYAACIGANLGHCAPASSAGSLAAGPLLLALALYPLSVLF

Trypanosoma cruzi = assay: growth inhibition of intracellular Trypanosoma cruzi, dose response, cell-based, plate reader, dry powder, set 3 (AID 493197); format: functional
[9] = biological target: T4, Runt-related transcription factor 1/Core-binding factor subunit beta (Homo sapiens, UniProt Q01196+Q13951); assay: inhibitors of RUNX1 Runt–CBFb-SMMHC binding, biochemical, TR-FRET (AID 1438); format: protein assay
[10] = biological target: T5, RNA-binding protein pos-1 (Caenorhabditis elegans, UniProt G5EF15); assay: inhibitors of POS-1/mex-3 RNA binding, dose response, biochemical, fluorescence polarization (AID 1964);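 also: purified POS-1 fused to maltose binding protein made in E. coli; potency of compounds blocking POS-1 binding to fluorescent RNA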
T5 sequence (G5EF15 whole entry): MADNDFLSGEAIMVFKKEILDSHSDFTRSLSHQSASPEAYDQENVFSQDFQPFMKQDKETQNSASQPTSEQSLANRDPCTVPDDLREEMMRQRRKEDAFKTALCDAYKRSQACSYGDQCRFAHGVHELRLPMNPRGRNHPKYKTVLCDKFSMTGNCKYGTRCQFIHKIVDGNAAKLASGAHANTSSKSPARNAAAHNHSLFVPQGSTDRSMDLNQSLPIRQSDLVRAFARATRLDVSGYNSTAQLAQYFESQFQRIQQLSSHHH

[11] = biological target: T4, Runt-related transcription factor 1/Core-binding factor subunit beta; assay: inhibitors of RUNX1 Runt–CBFb-SMMHC binding, primary screen, biochemical, FRET, Cerulean-Runt, Venus-CBFb-SMMHC, uHTS (AID 1434); format: protein assay;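 also: partner is the CBFb-SMMHC leukemia fusion protein rather than wild-type CBFb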
[12] = biological target: T6, Zinc finger protein mex-5 (Caenorhabditis elegans, UniProt Q9XUB2); assay: MEX-5/TCR-2 RNA interaction inhibitors, dose response, biochemical, C. elegans, fluorescence polarization (AID 1960)
T6 sequence (Q9XUB2 whole entry): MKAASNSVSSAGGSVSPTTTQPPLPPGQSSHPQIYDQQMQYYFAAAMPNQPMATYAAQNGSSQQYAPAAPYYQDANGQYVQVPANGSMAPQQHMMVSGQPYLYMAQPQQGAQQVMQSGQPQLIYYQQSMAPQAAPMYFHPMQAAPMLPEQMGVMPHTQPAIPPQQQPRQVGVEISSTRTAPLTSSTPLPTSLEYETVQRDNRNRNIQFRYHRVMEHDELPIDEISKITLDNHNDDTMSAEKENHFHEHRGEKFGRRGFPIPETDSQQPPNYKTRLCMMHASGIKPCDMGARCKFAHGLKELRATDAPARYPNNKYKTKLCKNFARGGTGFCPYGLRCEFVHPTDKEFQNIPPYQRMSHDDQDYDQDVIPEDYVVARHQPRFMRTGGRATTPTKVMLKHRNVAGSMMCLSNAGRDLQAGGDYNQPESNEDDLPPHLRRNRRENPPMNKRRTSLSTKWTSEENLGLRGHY

Coagulation factor XII = biological target: T7, Coagulation factor XII (Homo sapiens, UniProt P00748); assay: Factor XIIa Dose Response Confirmation from Single Well HTS. [Related pubchem assays (depositor defined):AID701]; format: functional
T7 sequence (P00748 whole entry): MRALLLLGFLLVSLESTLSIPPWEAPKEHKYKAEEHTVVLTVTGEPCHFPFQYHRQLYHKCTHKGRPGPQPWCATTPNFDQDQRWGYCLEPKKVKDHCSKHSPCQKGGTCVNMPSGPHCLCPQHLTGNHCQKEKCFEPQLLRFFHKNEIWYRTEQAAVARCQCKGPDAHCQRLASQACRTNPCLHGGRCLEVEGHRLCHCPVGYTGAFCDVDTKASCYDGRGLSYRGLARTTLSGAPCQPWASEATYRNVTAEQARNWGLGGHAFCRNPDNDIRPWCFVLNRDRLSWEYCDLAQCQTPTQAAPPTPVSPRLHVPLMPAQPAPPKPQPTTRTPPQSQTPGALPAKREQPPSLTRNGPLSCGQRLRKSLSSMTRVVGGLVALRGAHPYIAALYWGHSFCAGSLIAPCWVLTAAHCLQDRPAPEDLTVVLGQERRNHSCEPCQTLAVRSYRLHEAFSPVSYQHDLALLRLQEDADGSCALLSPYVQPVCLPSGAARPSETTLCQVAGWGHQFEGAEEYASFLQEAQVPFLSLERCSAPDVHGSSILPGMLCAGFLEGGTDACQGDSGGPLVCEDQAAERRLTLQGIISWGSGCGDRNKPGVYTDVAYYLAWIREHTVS

[13] = cytotoxicity in HEK-293T cells, dose response, cytotoxicity control for BCR NF-kB inhibitor project, luminescence, B-cell screen hits (AID 489021); format: functional, cell-based;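 also: HEK-293T cells carrying an NF-kB luciferase reporter; cells exposed to compound for about 14 hours before viability readout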
[14] = biological target: Glucose-6-phosphate 1-dehydrogenase (Homo sapiens, UniProt P11413); assay: human G6PD enzyme inhibitors, dose response, selectivity assay for P. falciparum G6PD inhibitor project, biochemical, fluorescence (AID 504792); format: functional
[15] = biological target: DNA dC->dU-editing enzyme APOBEC-3A (Homo sapiens, UniProt P31941); assay: APOBEC3A DNA deaminase inhibitors, dose response, biochemical (AID 504722); format: functional
[16] = biological target: DNA dC->dU-editing enzyme APOBEC-3G (Homo sapiens, UniProt Q9HC16); assay: Dose Response confirmation of small molecule APOBEC3G DNA Deaminase Inhibitors via a fluorescence-based single-stranded DNA deaminase assay. [Related pubchem assays (depositor defined):AID493012, AID493028]; format: functional
Sequence of DNA dC->dU-editing enzyme APOBEC-3G (Q9HC16 whole entry): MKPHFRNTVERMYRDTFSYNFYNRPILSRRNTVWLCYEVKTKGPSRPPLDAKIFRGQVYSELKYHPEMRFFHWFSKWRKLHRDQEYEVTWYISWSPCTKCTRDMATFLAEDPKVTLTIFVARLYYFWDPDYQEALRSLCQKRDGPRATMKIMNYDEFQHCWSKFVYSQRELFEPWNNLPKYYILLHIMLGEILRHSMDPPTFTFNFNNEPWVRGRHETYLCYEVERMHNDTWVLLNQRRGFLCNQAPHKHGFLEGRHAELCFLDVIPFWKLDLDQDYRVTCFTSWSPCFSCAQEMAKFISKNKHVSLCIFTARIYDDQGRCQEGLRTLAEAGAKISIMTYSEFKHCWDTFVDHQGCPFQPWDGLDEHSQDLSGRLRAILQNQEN

Sequence of Eukaryotic translation initiation factor 4E (P63073 whole entry): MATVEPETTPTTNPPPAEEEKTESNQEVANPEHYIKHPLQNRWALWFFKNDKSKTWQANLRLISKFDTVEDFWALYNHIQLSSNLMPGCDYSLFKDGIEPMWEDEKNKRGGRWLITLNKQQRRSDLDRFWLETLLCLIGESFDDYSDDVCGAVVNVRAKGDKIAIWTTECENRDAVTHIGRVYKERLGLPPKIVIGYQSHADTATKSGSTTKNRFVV
Sequence of DNA dC->dU-editing enzyme APOBEC-3A (P31941 whole entry): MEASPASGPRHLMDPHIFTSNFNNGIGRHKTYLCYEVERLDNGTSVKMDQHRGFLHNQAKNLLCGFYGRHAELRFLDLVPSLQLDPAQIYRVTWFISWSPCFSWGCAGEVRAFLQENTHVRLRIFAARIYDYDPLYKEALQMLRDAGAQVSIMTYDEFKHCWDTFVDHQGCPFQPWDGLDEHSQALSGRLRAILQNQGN
T4 sequence (Q01196 whole entry, the tested form may be a part): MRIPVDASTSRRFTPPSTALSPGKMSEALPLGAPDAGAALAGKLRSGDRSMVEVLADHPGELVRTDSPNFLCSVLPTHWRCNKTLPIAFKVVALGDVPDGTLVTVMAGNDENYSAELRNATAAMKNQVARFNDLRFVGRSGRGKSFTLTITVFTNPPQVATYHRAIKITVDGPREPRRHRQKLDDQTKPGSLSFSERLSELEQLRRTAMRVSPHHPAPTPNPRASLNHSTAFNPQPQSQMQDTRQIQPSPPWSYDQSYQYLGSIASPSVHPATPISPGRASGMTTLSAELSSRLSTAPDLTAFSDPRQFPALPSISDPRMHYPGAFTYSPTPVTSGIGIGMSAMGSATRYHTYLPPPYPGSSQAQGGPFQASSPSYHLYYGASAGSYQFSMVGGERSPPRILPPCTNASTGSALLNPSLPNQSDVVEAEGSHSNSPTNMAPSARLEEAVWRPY
T4 sequence (Q13951 whole entry, the tested form may be a part): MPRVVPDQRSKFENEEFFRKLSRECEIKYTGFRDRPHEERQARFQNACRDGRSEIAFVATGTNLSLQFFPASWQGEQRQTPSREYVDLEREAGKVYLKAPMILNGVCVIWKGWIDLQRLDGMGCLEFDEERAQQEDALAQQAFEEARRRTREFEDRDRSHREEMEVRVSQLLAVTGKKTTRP
Sequence of Glyceraldehyde-3-phosphate dehydrogenase (P04406 whole entry): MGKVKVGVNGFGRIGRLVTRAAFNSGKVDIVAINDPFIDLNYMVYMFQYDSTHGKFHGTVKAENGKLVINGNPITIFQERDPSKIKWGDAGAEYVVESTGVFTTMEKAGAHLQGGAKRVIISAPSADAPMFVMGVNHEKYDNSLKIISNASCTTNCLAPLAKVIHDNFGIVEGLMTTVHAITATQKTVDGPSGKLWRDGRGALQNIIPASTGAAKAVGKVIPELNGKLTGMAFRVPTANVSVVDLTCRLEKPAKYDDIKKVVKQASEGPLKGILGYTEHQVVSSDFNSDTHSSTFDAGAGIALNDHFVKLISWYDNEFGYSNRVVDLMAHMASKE
Sequence of Glucose-6-phosphate 1-dehydrogenase (P11413 whole entry): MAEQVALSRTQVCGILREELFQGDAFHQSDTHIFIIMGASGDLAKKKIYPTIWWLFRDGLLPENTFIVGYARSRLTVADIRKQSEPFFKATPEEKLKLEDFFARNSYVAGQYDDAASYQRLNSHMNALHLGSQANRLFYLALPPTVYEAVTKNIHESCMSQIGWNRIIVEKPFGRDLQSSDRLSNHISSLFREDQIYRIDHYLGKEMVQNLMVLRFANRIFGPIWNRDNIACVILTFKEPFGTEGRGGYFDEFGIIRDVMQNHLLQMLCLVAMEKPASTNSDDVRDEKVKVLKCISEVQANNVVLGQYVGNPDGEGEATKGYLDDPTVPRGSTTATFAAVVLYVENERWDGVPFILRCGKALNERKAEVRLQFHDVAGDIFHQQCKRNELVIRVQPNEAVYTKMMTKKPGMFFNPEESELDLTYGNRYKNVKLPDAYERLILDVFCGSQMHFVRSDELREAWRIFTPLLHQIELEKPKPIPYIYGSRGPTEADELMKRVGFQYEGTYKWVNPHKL
Sequence of Trypsin (P00761 whole entry): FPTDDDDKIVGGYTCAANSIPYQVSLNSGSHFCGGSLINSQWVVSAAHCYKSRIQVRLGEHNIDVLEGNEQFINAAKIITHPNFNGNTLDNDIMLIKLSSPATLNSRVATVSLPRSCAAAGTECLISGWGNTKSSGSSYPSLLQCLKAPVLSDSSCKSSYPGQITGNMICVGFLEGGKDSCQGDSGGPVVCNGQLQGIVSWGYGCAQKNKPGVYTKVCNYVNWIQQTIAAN
Sequence of Intestinal-type alkaline phosphatase (P09923 whole entry): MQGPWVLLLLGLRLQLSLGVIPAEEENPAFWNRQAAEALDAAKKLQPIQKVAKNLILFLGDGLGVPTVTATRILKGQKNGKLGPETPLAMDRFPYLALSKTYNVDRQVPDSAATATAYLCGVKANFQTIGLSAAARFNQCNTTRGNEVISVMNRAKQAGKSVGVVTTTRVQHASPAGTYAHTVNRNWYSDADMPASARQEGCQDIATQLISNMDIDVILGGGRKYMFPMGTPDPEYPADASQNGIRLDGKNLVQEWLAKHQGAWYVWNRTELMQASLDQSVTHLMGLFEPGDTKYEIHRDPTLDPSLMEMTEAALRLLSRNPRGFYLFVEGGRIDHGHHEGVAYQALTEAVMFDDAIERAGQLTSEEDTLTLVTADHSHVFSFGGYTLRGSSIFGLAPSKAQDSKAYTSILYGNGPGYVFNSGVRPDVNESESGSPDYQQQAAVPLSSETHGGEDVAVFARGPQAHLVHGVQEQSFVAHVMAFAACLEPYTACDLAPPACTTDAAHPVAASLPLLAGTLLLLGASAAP
Sequence of Induced myeloid leukemia cell differentiation protein Mcl-1 (Q07820 whole entry): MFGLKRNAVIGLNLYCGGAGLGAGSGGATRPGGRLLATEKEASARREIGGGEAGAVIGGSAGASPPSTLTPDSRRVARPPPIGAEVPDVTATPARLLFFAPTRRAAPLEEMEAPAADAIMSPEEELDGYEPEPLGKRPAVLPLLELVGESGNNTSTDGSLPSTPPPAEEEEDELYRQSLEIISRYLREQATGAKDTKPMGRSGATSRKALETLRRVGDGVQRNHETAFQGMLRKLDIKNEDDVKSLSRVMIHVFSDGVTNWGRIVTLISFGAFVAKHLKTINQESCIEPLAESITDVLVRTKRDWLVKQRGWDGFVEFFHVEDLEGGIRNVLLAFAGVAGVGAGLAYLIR
Sequence of CAAX prenyl protease 2 (Q03530 whole entry): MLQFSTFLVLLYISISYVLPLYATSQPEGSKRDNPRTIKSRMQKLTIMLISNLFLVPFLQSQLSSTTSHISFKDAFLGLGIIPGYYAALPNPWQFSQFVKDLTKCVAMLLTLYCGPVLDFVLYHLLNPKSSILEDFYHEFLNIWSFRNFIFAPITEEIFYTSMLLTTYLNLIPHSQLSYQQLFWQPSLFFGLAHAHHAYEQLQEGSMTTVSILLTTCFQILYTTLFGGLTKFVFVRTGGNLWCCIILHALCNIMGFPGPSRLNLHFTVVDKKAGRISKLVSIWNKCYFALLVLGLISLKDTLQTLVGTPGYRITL

In the case of `COC(=O)c1cnn2c3c(c(C)nc12)CCCC3`, the AC50 (Trypsin) is reported as 8.29 µM (active) and the AC50 (CAAX prenyl protease 2) is reported as 10.3 µM (active).

With `N/C(=N\N=C\c1ccc([N+](=O)[O-])cc1)c1nonc1N` the EC50 [1] was > 55.7 µM (not active) and the EC50 [2] was > 55.7 µM (not active).

With `COc1ccc(CCN2C(=O)c3ccncc3C2=O)cc1OC` the IC50 [3] was > 100 µM (inactive).

In the case of `O=C1C=CC(=Nc2nc(O)c(-c3c(O)[nH]c4ccccc34)s2)C=C1`, the IC50 [4] is reported as 59.2 µM (active), the IC50 [5] is reported as 50 µM (inactive) and the IC50 [6] is reported as 1.67 µM (active).

In the case of `C/C(=N/N=C1\SCC(=O)N1c1ccccc1)c1ccc(C)cc1`, the EC50 [1] is reported as > 55.7 µM (not active) and the EC50 [2] is reported as > 55.7 µM (not active).

For `CSc1cccc(NC(=S)N(Cc2ccc(C)cc2)Cc2cccnc2)c1`, the IC50 [5] was 50 µM (inactive).

For `COc1ccccc1C(=O)Nc1cnc2ccccc2c1`, the IC50 [7] was > 10 µM (inconclusive) and the IC50 [8] was > 10 µM (inactive).

In the case of `CN(Cc1ccccc1)C(=O)C1CCCN(Cc2ccccc2)C1` (stereo not given), the AC50 (Trypanosoma cruzi) is reported as 5.07 µM (active).

In the case of `Oc1ccc(-c2cnns2)c(O)c1`, the IC50 [9] is reported as 19.9 µM (active), the EC50 [10] is reported as 45.5 µM (active) and the IC50 [11] is reported as 31.5 µM (active). The EC50 [12] was 10.4 µM (active).

In the case of `Cc1ccc(-c2n[nH]c(=O)c3ccccc23)cc1S(=O)(=O)NCCO`, the IC50 (Coagulation factor XII) is reported as > 50 µM (inactive).

In the case of `COC(=O)c1c(NC(=O)c2cccc([N+](=O)[O-])c2)sc(C(N)=O)c1C`, the IC50 [13] is reported as > 80 µM (inactive).

In the case of `COc1cc(/C=N/n2cc(-c3ccccc3)nc2S)cc(OC)c1O`, the IC50 [14] is reported as > 80 µM (inactive), the IC50 [15] is reported as > 100 µM (inactive) and the IC50 [16] is reported as 5.9 µM (active).

In the case of `Cc1ccc(-c2cn3c(S)nnc3s2)cc1`, the IC50 [15] is reported as > 100 µM (inactive) and the IC50 [16] is reported as 2.61 µM (active).
